Measured values: patent publication US11872216B2, “Pharmaceutical formulation comprising cineole and amoxicillin” (priority 2016, dated 2024)
“And” between values parts separate entries of the source, which are not always exact repeats. Equal entries are not always repeated.

System: amoxicillin-sensitive bacterial strain of Escherichia coli (ATCC 8739)
Experiment: Enzymatic test in agar medium (inhibition halos of disks with or without β-lactamase and cineole)
Assay type: cell-based
Procedure: This study is based on an enzymatic test first placing AMX combined with cineole in contact with ß-lactamases. The antibacterial activity of this antibiotic was then checked on an AMX-sensitive strain of Escherichia coli.
An amoxicillin-sensitive bacterial strain of Escherichia coli (ATCC 8739) was supplied by the national hygiene institute (INH-Rabat).
For each test performed, precultures of this E. coli strain of 24 h at 37° C. were prepared from this bacterial strain (frozen beforehand at −20° C.). From these precultures, bacterial inocula of 3.3×10^6 CFU/ml were prepared, adjusting the optical density to 540 nm.
Disks charged with antibiotics (diameter Ø=6 mm) were used for the enzymatic test in agar medium (AMX: amoxicillin and AMC: amoxicillin+clavulanic acid). They were supplied by the national hygiene institute (INH-Rabat). The AMX used for the enzymatic test in liquid medium was supplied by Sigma Aldrich (France).
The cineole was supplied by Sigma Aldrich (France). […]
Starting with a 24 h sensitive preculture of E. coli, eighteen Petri dishes of the agar MH medium were inoculated by surface plating. […] 10 μl of β-lactamase at 0.03 U/ml and 10 μl of cineole at 0.002 μl/ml were added to the surface of each of these three disks. • After incubation of the eight Petri dishes for 18 h at 37° C., the diameters of the inhibition halos were measured.

| Structure (SMILES) | Diameters of the halos (disks AMX 20 μg, AMC 30 μg, β-lactamase 0.03 U/ml, cineole 0.002 μl/ml where added, 18 h at 37° C., 6 mm is the diameter of the disk, listed as AMX) | infra-inhibitory concentration (highest concentration without any inhibition) (microdilution method) |
| --- | --- | --- |
| CC1(C)S[C@@H]2[C@H](NC(=O)[C@H](N)c3ccc(O)cc3)C(=O)N2[C@H]1C(=O)O [amoxicillin, Amoxicillin] | 15 mm and 15 ± 1.0 mm |  |
| CC12CCC(CC1)C(C)(C)O2 [cineole, 1,8-cineole] |  | ~0.002 μl/ml |
